Measured values as given in patent publication US20160318987A1 (MEDIMMUNE LIMITED, priority 2013, published 2016).
Like-named read-outs stand apart in the source and are kept apart here. *1 amine or outer side, *2 acyl side, *3 side chain or, on linkers, in order; H or OH if unused. Where a SMILES comes first, the peptide text is derived from it. Where no end group is shown, it is not given here. Side-chain parts run from the residue outwards. [ ]: non-standard residue; d: D form. The star is where a group is joined. Palmitoyl(16-(5-tetrazolyl)) = O=C(CCCCCCCCCCCCCCCc1nnn[nH]1)*; γGlu = O=C(O)[C@H](CCC(=O)[*:2])N[*:1]; Palmitoyl = CCCCCCCCCCCCCCCC(=O)*; αMeF = C[C@](N)(Cc1ccccc1)C(=O)O; αMeK = C[C@](N)(CCCCN)C(=O)O; αMeV = CC(C)[C@](C)(N)C(=O)O; Aib = CC(C)(N)C(=O)O

Key:
[1] = system: DPP-IV, Neprilysin, Chymotrypsin, Trypsin, Pepsin; experiment: enzyme resistance, protease panel (Table 2 description); type: in vitro ADME
Description: (§1) Peptides for evaluation were prepared to a concentration of 1.0 mg/mL solutions in either pure water, sterile saline for injection (0.9% w/v NaCl/water) or 1× PBS (Dulbecco). 100 μL (100 μg/mL peptide) of these solutions was added to 900 μL of each protease solution. Additional experiments were performed examining protein degradation during exposure to serum and gastric fluid. For serum studies, peptides were incubated with 50% female Sprague-Dawley strain rat serum (SD rat serum). For gastric fluid studies, peptides were incubated 1:1 (volume:volume), fresh rat gastric fluid.
(§2) The peptide and enzyme (or serum or gastric fluid) were co-incubated in a temperature regulated water bath at 37° C. for the duration of the experiment. During each experiment 100 μL aliquots (10 μg peptide) of the incubated peptide-enzyme mixture were withdrawn periodically, quenched by addition of an equal volume of 5% TFA (v/v) in 1:1 water/acetonitrile to arrest proteolytic activity, and analyzed by liquid chromatography-mass spectrometry (LC/MS): Agilent Polaris C8-A column (4.6×100 mm, 3 micron) using a linear binary gradient of 10-90% MeCN (0.1% TFA v/v) in water (0.1% TFA v/v) over 30 minutes at 1.5 mL min^−1 at ambient temperature. Analytes were detected by both UV absorption at 210 nm and ionization using a Waters 3100 mass detector (ESI^+ mode). New peptidic species (fragments) derived from enzymatic cleavage of peptides were analyzed post-process, and their molecular masses were used to identify the precise cleavage position (highlighting the scissile bond in each case).

hGIP-R = biological target: T1, hGIP-R (Homo sapiens, UniProt P48546); experiment: cAMP functional assay, cells expressing human GIP receptor (primary assay); type: cell-based; conditions: n = 2
T1 construct: expressed in transfected cells
T1 sequence (P48546 22-466): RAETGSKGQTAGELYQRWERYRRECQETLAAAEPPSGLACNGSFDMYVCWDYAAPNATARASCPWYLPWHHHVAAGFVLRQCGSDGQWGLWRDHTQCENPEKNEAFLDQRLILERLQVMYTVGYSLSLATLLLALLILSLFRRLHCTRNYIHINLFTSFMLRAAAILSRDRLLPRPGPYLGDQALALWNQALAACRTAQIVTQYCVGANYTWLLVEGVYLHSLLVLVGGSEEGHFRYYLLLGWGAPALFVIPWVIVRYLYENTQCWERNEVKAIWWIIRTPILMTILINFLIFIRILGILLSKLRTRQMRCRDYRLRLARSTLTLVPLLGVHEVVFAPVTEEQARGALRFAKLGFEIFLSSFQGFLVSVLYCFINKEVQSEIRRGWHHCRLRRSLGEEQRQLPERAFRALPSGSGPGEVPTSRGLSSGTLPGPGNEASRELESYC

hGLP-1R = biological target: T2, hGLP-1R (Homo sapiens, UniProt P43220); experiment: cAMP functional assay, cells expressing human GLP-1 receptor (primary assay); type: cell-based; conditions: n = 2
T2 construct: expressed in transfected cells

hGluc-R = biological target: T3, hGluc-R (Homo sapiens, UniProt P47871); experiment: cAMP functional assay, cells expressing human glucagon receptor (primary assay); type: cell-based; conditions: n = 2
T3 construct: expressed in transfected cells

Chymotrypsin (rhCTRC) = biological target: T4, Chymotrypsin (rhCTRC) (Homo sapiens, UniProt Q99895); experiment: chymotrypsin stability study (LC/MS); type: in vitro ADME; conditions: for Chymotrypsin cleavage/liability (Discussion / Description): Table 2 description
T4 construct: purchased R&D Systems 6907-SE-010
T4 sequence (Q99895 30-268): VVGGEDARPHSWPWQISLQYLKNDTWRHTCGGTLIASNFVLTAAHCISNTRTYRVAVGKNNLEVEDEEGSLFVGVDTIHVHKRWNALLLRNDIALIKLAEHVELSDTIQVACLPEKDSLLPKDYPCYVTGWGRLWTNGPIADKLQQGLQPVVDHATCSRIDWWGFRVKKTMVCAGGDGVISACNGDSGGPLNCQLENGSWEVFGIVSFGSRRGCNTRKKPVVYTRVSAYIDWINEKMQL
Description: as §1, §2

[2] = biological target: T5, trypsin from porcine pancreas (Sus scrofa, UniProt P00761); experiment: trypsin stability study (LC/MS); type: in vitro ADME; conditions: trypsin, 37° C.
T5 construct: purchased Sigma P7409; host or cells: porcine pancreas
Description: as §1, §2

T2 sequence (P43220 24-463): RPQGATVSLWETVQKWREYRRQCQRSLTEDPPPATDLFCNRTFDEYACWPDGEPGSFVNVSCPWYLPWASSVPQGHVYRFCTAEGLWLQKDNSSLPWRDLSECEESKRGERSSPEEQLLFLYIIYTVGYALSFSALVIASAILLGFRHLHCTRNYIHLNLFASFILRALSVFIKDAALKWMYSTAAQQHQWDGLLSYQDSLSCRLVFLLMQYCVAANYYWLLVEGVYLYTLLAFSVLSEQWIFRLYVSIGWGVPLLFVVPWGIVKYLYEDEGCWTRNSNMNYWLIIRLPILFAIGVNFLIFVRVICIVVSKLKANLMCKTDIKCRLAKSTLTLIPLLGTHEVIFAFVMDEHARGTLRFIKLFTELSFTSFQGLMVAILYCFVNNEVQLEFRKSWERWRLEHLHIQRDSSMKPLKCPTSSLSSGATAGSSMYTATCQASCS
T3 sequence (P47871 26-477): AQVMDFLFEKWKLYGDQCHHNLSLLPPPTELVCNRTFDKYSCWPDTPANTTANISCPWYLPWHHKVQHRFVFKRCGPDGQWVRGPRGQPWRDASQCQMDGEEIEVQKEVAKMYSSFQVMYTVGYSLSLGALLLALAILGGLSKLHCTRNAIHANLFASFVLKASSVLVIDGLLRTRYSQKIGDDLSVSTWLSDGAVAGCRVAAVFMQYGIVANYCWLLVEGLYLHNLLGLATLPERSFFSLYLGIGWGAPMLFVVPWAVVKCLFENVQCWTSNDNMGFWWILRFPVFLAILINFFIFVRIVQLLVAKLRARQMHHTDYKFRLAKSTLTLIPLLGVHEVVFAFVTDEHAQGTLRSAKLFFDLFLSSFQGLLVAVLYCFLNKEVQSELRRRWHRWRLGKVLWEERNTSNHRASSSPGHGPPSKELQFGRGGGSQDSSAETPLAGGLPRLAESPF
T5 sequence (P00761 9-231): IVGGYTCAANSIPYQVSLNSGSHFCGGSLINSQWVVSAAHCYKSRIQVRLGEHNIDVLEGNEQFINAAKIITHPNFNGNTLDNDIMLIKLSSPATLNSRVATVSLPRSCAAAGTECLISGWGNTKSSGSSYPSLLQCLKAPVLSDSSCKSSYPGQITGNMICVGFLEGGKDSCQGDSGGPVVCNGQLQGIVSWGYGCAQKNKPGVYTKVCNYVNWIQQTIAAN

CC[C@H](C)[C@H](NC(=O)[C@](C)(Cc1ccccc1)NC(=O)[C@H](CCC(=O)O)NC(=O)[C@](C)(CCCCN)NC(=O)[C@H](C)NC(=O)[C@H](C)NC(=O)[C@H](CCC(=O)O)NC(=O)CNC(=O)[C@H](CCC(=O)O)NC(=O)[C@H](CC(C)C)NC(=O)[C@](C)(Cc1ccccc1)NC(=O)[C@H](CO)NC(=O)[C@H](CO)NC(=O)[C@@H](NC(=O)[C@H](CC(=O)O)NC(=O)[C@H](CO)NC(=O)[C@@H](NC(=O)[C@](C)(Cc1ccccc1)NC(=O)[C@H](CO)NC(=O)CNC(=O)[C@H](CCC(=O)O)NC(=O)C(C)(C)NC(=O)[C@@H](N)Cc1c[nH]cn1)[C@@H](C)O)C(C)C)C(=O)N[C@@H](C)C(=O)N[C@@](C)(Cc1ccccc1)C(=O)N[C@H](C(=O)N[C@H](C(=O)N[C@@](C)(CCCCN)C(=O)NCC(=O)NCC(=O)N[C@@H](CCCCN)C(N)=O)C(C)C)C(C)C [SEQ ID NO: 61, H-(Aib)^2-EG-(S)^5-(α-MeF)^6-TSDV^10 SS-(α-MeF)^13-LE^15 G-(E)^17-AA-(α-MeK)^20 E-(α-MeF)^22-IA-(α-MeF)^25-(V)^26-V-(α-MeK)^28-G-(G)^30-(K)^31] (H-H[Aib]EGS[αMeF]TSDVSS[αMeF]LEGEAA[αMeK]E[αMeF]IA[αMeF]VV[αMeK]GGK-NH2)
enzyme resistance (DPP-IV, Neprilysin, Chymotrypsin, Trypsin, Pepsin) [1]: Excellent enzyme resistance
EC50 (hGIP-R): 99.7 nM
EC50 (hGLP-1R): 0.034 nM
EC50 (hGluc-R): 30.4 nM

CC[C@H](C)[C@H](NC(=O)[C@](C)(Cc1ccccc1)NC(=O)[C@H](CCC(=O)O)NC(=O)[C@](C)(CCCCN)NC(=O)[C@H](C)NC(=O)[C@H](C)NC(=O)[C@H](CCC(=O)O)NC(=O)CNC(=O)[C@H](CCC(=O)O)NC(=O)[C@H](CC(C)C)NC(=O)[C@](C)(Cc1ccccc1)NC(=O)[C@H](CO)NC(=O)[C@H](CO)NC(=O)[C@@H](NC(=O)[C@H](CC(=O)O)NC(=O)[C@H](CO)NC(=O)[C@@H](NC(=O)[C@](C)(Cc1ccccc1)NC(=O)[C@H](CO)NC(=O)CNC(=O)[C@H](CCC(=O)O)NC(=O)C(C)(C)NC(=O)[C@@H](N)Cc1c[nH]cn1)[C@@H](C)O)C(C)C)C(=O)N[C@@H](C)C(=O)N[C@@](C)(Cc1ccccc1)C(=O)N[C@H](C(=O)N[C@H](C(=O)N[C@@](C)(CCCCN)C(=O)NCC(=O)NCC(N)=O)C(C)C)C(C)C [SEQ ID NO: 60, H-(Aib)^2-EG-(S)^5-(α-MeF)^6-TSDV^10 SS-(α-MeF)^13-LE^15 G-(E)^17-AA-(α-MeK)^20 E-(α-MeF)^22-IA-(α-MeF)^25-(V)^26-V-(α-MeK)^28-G-(G)^30]
enzyme resistance (DPP-IV, Neprilysin, Chymotrypsin, Trypsin, Pepsin) [1]: Excellent enzyme resistance
EC50 (hGIP-R): 104 nM
EC50 (hGLP-1R): 0.0212 nM
EC50 (hGluc-R): 66.3 nM

CC[C@H](C)[C@H](NC(=O)[C@](C)(Cc1ccccc1)NC(=O)[C@H](CCC(=O)O)NC(=O)[C@](C)(CCCCN)NC(=O)[C@H](C)NC(=O)[C@H](C)NC(=O)[C@H](CCC(N)=O)NC(=O)CNC(=O)[C@H](CCC(=O)O)NC(=O)[C@H](CC(C)C)NC(=O)[C@](C)(Cc1ccccc1)NC(=O)[C@H](CO)NC(=O)[C@H](CO)NC(=O)[C@@H](NC(=O)[C@H](CC(=O)O)NC(=O)[C@H](CO)NC(=O)[C@@H](NC(=O)[C@](C)(Cc1ccccc1)NC(=O)[C@H](CO)NC(=O)CNC(=O)[C@H](CCC(=O)O)NC(=O)C(C)(C)NC(=O)[C@@H](N)Cc1c[nH]cn1)[C@@H](C)O)C(C)C)C(=O)N[C@@H](C)C(=O)N[C@@](C)(Cc1ccccc1)C(=O)N[C@H](C(=O)N[C@H](C(=O)N[C@@](C)(CCCCN)C(=O)NCC(=O)NCC(N)=O)C(C)C)C(C)C [SEQ ID NO: 51, H-(Aib)^2-EG-(S)^5-(α-MeF)^6-TSDV^10 SS-(α-MeF)^13-LE^15 GQAA-(α-MeK)^20 E-(α-MeF)^22-IA-(α-MeF)^25-(V)^26-V-(α-MeK)^28-G-(G)^30] (H-H[Aib]EGS[αMeF]TSDVSS[αMeF]LEGQAA[αMeK]E[αMeF]IA[αMeF]VV[αMeK]GG-NH2)
Chymotrypsin cleavage/liability (Discussion / Description) (Chymotrypsin (rhCTRC)): overcoming Chymotrypsin
duration of stability, no major cleavage products (Chymotrypsin (rhCTRC); chymotrypsin, 37° C.): over 60 hours
EC50 (hGIP-R): 104 nM
EC50 (hGLP-1R): 0.0219 nM
duration of stability [2]: over 18 hours
EC50 (hGluc-R): 104 nM

CCCCCCCCCCCCCCCC(=O)N[C@@H](CCC(=O)NCCCC[C@H](NC(=O)CNC(=O)CNC(=O)[C@](C)(CCCCN)NC(=O)[C@@H](NC(=O)[C@@H](NC(=O)[C@](C)(Cc1ccccc1)NC(=O)[C@H](C)NC(=O)[C@@H](NC(=O)[C@](C)(Cc1ccccc1)NC(=O)[C@H](CCC(=O)O)NC(=O)[C@](C)(CCCCN)NC(=O)[C@H](C)NC(=O)[C@H](C)NC(=O)[C@H](CCC(=O)O)NC(=O)CNC(=O)[C@H](CCC(=O)O)NC(=O)[C@H](CC(C)C)NC(=O)[C@](C)(Cc1ccccc1)NC(=O)[C@H](CO)NC(=O)[C@H](CO)NC(=O)[C@@H](NC(=O)[C@H](CC(=O)O)NC(=O)[C@H](CO)NC(=O)[C@@H](NC(=O)[C@](C)(Cc1ccccc1)NC(=O)[C@H](CO)NC(=O)CNC(=O)[C@H](CCC(=O)O)NC(=O)C(C)(C)NC(=O)[C@@H](N)Cc1c[nH]cn1)[C@@H](C)O)C(C)C)[C@@H](C)CC)C(C)C)C(C)C)C(N)=O)C(=O)O [SEQ ID NO: 59, H-(Aib)^2-EG-(S)^5-(α-MeF)^6-TSDV^10 SS-(α-MeF)^13-LE^15 G-(E)^17-AA-(α-MeK)^20 E-(α-MeF)^22-IA-(α-MeF)^25-(V)^26-V-(α-MeK)^28-G-(G)^30-K(Ε-γ-E-Palm)] (H-H[Aib]EGS[αMeF]TSDVSS[αMeF]LEGEAA[αMeK]E[αMeF]IA[αMeF]VV[αMeK]GGK([γGlu-Palmitoyl])-NH2)
enzyme resistance (DPP-IV, Neprilysin, Chymotrypsin, Trypsin, Pepsin) [1]: Excellent enzyme resistance
EC50 (hGIP-R): 89.8 nM
EC50 (hGLP-1R): 0.218 nM
EC50 (hGluc-R): 89.8 nM

CC[C@H](C)[C@H](NC(=O)[C@](C)(Cc1ccccc1)NC(=O)[C@H](CCC(=O)O)NC(=O)[C@H](CCCCN)NC(=O)[C@H](C)NC(=O)[C@H](C)NC(=O)[C@H](CCC(N)=O)NC(=O)CNC(=O)[C@H](CCC(=O)O)NC(=O)[C@H](CC(C)C)NC(=O)[C@](C)(Cc1ccccc1)NC(=O)[C@H](CO)NC(=O)[C@H](CO)NC(=O)[C@@H](NC(=O)[C@H](CC(=O)O)NC(=O)[C@H](CO)NC(=O)[C@@H](NC(=O)[C@](C)(Cc1ccccc1)NC(=O)[C@H](CO)NC(=O)CNC(=O)[C@H](CCC(=O)O)NC(=O)C(C)(C)NC(=O)[C@@H](N)Cc1c[nH]cn1)[C@@H](C)O)C(C)C)C(=O)N[C@@H](C)C(=O)N[C@@](C)(Cc1ccccc1)C(=O)N[C@@H](CC(C)C)C(=O)N[C@](C)(C(=O)N[C@@H](CCCCN)C(=O)NCC(=O)N[C@@H](CCCNC(=N)N)C(N)=O)C(C)C [SEQ ID NO: 41, H-(Aib)^2-EG-(S)^5-(α-MeF)^6-TSDV^10 SS-(α-MeF)^13-LE^15 GQAAK^20 E-(α-MeF)^22-IA-(α-MeF)^25 L-(α-MeV)^27-KGR^30] (H-H[Aib]EGS[αMeF]TSDVSS[αMeF]LEGQAAKE[αMeF]IA[αMeF]L[αMeV]KGR-NH2)
Chymotrypsin cleavage/liability (Discussion / Description) (Chymotrypsin (rhCTRC)): MeVal^27 overcomes
EC50 (hGIP-R): 102 nM
EC50 (hGLP-1R): 0.0546 nM

H-(Aib)^2-EG-(S)^5-(α-MeF)^6-TSDV^10 SS-(α-MeF)^13-LE^15 GQAA-(α-MeK)^20 E-(α-MeF)^22-IA-(α-MeF)^25-(V)^26-V-(α-MeK)^28-G-(G)^30-K(Ε-Tetrazolylpalm) (H[Aib]EGS[αMeF]TSDVSS[αMeF]LEGQAA[αMeK]E[αMeF]IA[αMeF]VV[αMeK]GGK(Palmitoyl(16-(5-tetrazolyl))); not fully specified (C-terminus); printed as H-(Aib)^2-EG-(S)^5-(α-MeF)^6-TSDV^10 SS-(α-MeF)^13-LE^15 GQAA-(α-MeK)^20 E-(α-MeF)^22-IA-(α-MeF)^25-(V)^26-V-(α-MeK)^28-G-(G)^30-K(Ε-Tetrazolylpalm)) [SEQ ID NO: 53]
enzyme resistance (DPP-IV, Neprilysin, Chymotrypsin, Trypsin, Pepsin) [1]: Excellent enzyme resistance
EC50 (hGLP-1R; read-out: Primary assay EC50 (n = 2) hGLP-1R): 0.0451 nM
